Measurements taken from patent publication US6743929B1, “Sulfonylalkanoylamino hydroxyethylamino sulfonamides useful as retroviral protease inhibitors” (G. D. Searle & Co., priority 1992, dated 2004).
Like-named read-outs stand apart in the source and are kept apart here.

Legend:
HIV-1 = experiment: CEM cell assay: HIV inhibition in acutely infected cells (MTT); format: cell-based; settings: Human immunodeficiency virus 1, CCRF-CEM, 168 h
Protocol: The effectiveness of compounds of the present invention were determined in a CEM cell assay.
(§1) The HIV inhibition assay method of acutely infected cells is an automated tetrazolium based calorimetric assay essentially that reported by Pauwles et al, J. Virol. Methods, 20, 309-321 (1988). Assays were performed in 96-well tissue culture plates. CEM cells, a CD4+ cell line, were grown in RPMI-1640 medium (Gibco) supplemented with a 10% fetal calf serum and were then treated with polybrene (2 μg/ml). An 80 μl volume of medium containing 1×10^4 cells was dispensed into each well of the tissue culture plate. To each well was added a 100 μl volume of tesc compound dissolved in tissue culture medium (or medium without test compound as a control) to achieve the desired final concentration and the cells were incubated at 37° C. for 1 hour. A frozen culture of HIV-1 was diluted in culture medium to a concentration of 5×10^4 TCID50 per ml (TCID50=the dose of virus that infects 50% of cells in tissue culture), and a 20 μL volume of the virus sample (containing 1000 TCID50 of virus) was added to wells containing test compound and to wells containing only medium (infected control cells). Several wells received culture medium without virus (uninfected control cells). Likewise, the intrinsic toxicity of the test compound was determined by adding medium without virus to several wells containing test compound. In summary, the tissue culture plates contained the following experiments:
(§2) In experiments 2 and 4 the final concentrations of test compounds were 1, 10, 100 and 500 μg/ml. Either azidothymidine (AZT) or dideoxyinosine (ddI) was included as a positive drug control. […] DMSO was added to all control wells at an appropriate concentration.
(§3) Following the addition of virus, cells were incubated at 37° C. in a humidified, 5% CO2 atmosphere for 7 days. Test compounds could be added on days 0, 2 and 5 if desired. On day 7, post-infection, the cells in each well were resuspended and a 100 μl sample of each cell suspension was removed for assay. A 20 μL volume of a 5 mg/ml solution of 3-(4,5-dimethylthiazol-2-yl)-2,5-diphenyltetrazolium bromide (MTT) was added to each 100 μL cell suspension, and the cells were incubated for 4 hours at […] in a 5% CO2 environment. […] To each sample was added 100 μl of 10% sodium dodecylsulfate in 0.01 N HCl to lyse the cells, and samples were incubated overnight. The absorbance at 590 nm was determined for each sample using a Molecular Devices microplate reader. Absorbance values for each set of wells is compared to assess viral control infection, uninfected control cell response as well as test compound by cytotoxicity and antiviral efficacy.

HIV protease = target: T1, HIV protease (Human immunodeficiency virus type 1 group M subtype B, UniProt P04585); experiment: HIV protease enzyme assay (fluorogenic substrate 2-aminobenzoyl-Ile-Nle-Phe(p-NO2)-Gln-ArgNH2); format: biochemical
T1 construct: HIV protease is diluted in the assay buffer to a final enzyme concentration of 12.3 nanomolar, based on a molecular weight of 10,780
From the text: The compounds of the present invention are effective HIV protease inhibitors. Utilizing an enzyme assay as described below, the compounds set forth in the examples herein disclosed inhibited the HIV enzyme. The preferred compounds of the present invention and their calculated IC50 (inhibiting concentration 50%, i.e., the concentration at which the inhibitor compound reduces enzyme activity by 50%) values are sh6wn in Table 16. The enzyme method is described below. The substrate is 2-aminobenzoyl-Ile-Nle-Phe(p-NO2)-Gln-ArgNH2. The positive control is MVT-101 (Miller, M. et al, Science, 246, 1149 (1989)] The assay conditions are as follows:
The above described substrate is dissolved in DMSO, then diluted 10 fold in assay buffer. Final substrate concentration in the assay is 80 μM.
HIV protease is diluted in the assay buffer to a final enzyme concentration of 12.3 nanomolar, based on a molecular weight of 10,780.
The final concentration of DMSO is 14% and the final concentration of glycerol is 18%. The test compound is dissolved in DMSO and diluted in DMSO to 10×the test concentration; 10 μl of the enzyme preparation is added, the materials mixed and then the mixture is incubated at ambient temperature for 15 minutes. The enzyme reaction is initiated by the addition of 40 μl of substrate. The increase in fluorescence is monitored at 4 time points (0, 8, 16 and 24 minutes) at ambient temperature. Each assay is carried out in duplicate wells.

CEM cells = experiment: CEM cell assay: intrinsic toxicity of test compound in uninfected cells (MTT); format: cell-based; settings: Table 10, CEM cells without virus, 7 days
Protocol: as §1, §2, §3

[1] = Table 10, CEM cells infected with HIV-1, 7 days, MTT, read-out: EC50

Compound: COc1ccc(S(=O)(=O)N(CCC(C)C)C[C@@H](O)[C@H](Cc2ccccc2)NC(=O)[C@H](C)CS(C)(=O)=O)cc1 (relative stereo) [Example 2, Propanamide, N-[2-Hydroxy-3-[(3-methylbutyl)(4-methoxyphenylsulfonyl)aminol-1-(phenylmethyl)propyl]-2-methyl-3-(methylsulfonyl)-[1S-[1R*(R*),2S*]]-]
- EC50 (HIV-1; [1]): 12 nM
- IC50 (HIV protease): 3.2 nM
- TD50 (nM) (CEM cells): 90,000 nM

Compound: CC(C)CN(C[C@@H](O)[C@H](Cc1ccccc1)NC(=O)[C@H](C)CS(C)(=O)=O)S(=O)(=O)c1ccccc1 (relative stereo) [Example 3, Propanamide, N-[2-Hydroxy-3-[(2-methylpropyl)(phenylsulfonyl)amino]-1-(phenylmethyl)propyl]-2-methyl-3-(methylsulfonyl)-, [1S-[1R*(R*),2S*]]-]
- EC50 (HIV-1; [1]): 10 nM
- IC50 (HIV protease): 3.2 nM
- TD50 (nM) (CEM cells): 213,000 nM

Compound: CC(C)CCN(C[C@@H](O)[C@H](Cc1ccccc1)NC(=O)[C@H](C)CS(C)(=O)=O)S(=O)(=O)c1ccccc1 (relative stereo) [Example 4, Propanamide, N-[2-Hydroxy-3-[(3-methylbutyl)(phenylsulfonyl)amino]-1-(phenylmethyl)propyl]-2-methyl-3-(methylsulfonyl)-. [1S-[1R*(R*), 2S*]]-]
- EC50 (HIV-1; [1]): 12 nM
- IC50 (HIV protease): 3 nM
- TD50 (nM) (CEM cells): >1,000,000 nM

Compound: CCCN(C[C@@H](O)[C@H](Cc1ccccc1)NC(=O)[C@H](C)CS(C)(=O)=O)S(=O)(=O)c1ccccc1 (relative stereo) [Example 5, Propanamide, N-[2-Hydroxy-3-(propyl)(phenylsulfonyl)amino]-1-(phenylmethyl)propyl]-2-methyl-3-(methylsulfonyl)-, [1S-[1R* (R*), 2S*]]-]
- EC50 (HIV-1; [1]): 25 nM
- IC50 (HIV protease): 13 nM
- TD50 (nM) (CEM cells): 438,000 nM

Compound: CCCCN(C[C@@H](O)[C@H](Cc1ccccc1)NC(=O)[C@H](C)CS(C)(=O)=O)S(=O)(=O)c1ccccc1 (relative stereo) [Example 6, Propanamide, N-[2-Hydroxy-3-(butyl)(phenylsulfonyl)amino]-1-(phenylmethyl)propyl]-2-methyl-3-(methylsulfonyl)-. [1S-[1R*(R*),2S*]]-]
- EC50 (HIV-1; [1]): 29 nM
- IC50 (HIV protease): 8.8 nM
- TD50 (nM) (CEM cells): 133,000 nM

Compound: COc1ccc(S(=O)(=O)N(CC(C)C)C[C@@H](O)[C@H](Cc2ccccc2)NC(=O)[C@H](C)CS(C)(=O)=O)cc1 (relative stereo) [Example 7, propanamide, N-[2-Hydroxy-3-[(2-methylpropyl)(4-methoxyphenylsulfonyl)amino]-1-(phenylmethyl)propyl]-2-methyl-3-(methylsulfonyl)-,[1S-[1R*(R*),2S*]]-]
- EC50 (HIV-1; [1]): 2 nM
- IC50 (HIV protease): 1.9 nM
- TD50 (nM) (CEM cells): >1,000,000 nM

Compound: CCCCN(C[C@@H](O)[C@H](Cc1ccccc1)NC(=O)[C@H](C)CS(C)(=O)=O)S(=O)(=O)c1ccc(OC)cc1 (relative stereo) [Example 8, Propanamide, N-[2-Hydroxy-3-[(butyl)(4-methoxyphenylsulfonyl)amino]-1-(phenylmethyl)propyl]-2-methyl-3-(methylsulfonyl)-,[1S-[1R*(R*),2S*]]-]
- EC50 (HIV-1; [1]): 9 nM
- IC50 (HIV protease): 3.1 nM
- TD50 (nM) (CEM cells): >1,000,000 nM

Compound: CCCN(C[C@@H](O)[C@H](Cc1ccccc1)NC(=O)[C@H](C)CS(C)(=O)=O)S(=O)(=O)c1ccc(OC)cc1 (relative stereo) [Example 9, propanamide, N-[2-Hydroxy-3-[(propyl)(4-methoxyphenylsulfonyl)amino]-1-(phenylmethyl)propyl]-2-methyl-3-(methylsulfonyl)-,[1S-[1R*(R*),2S*]]-]
- EC50 (HIV-1; [1]): 16 nM
- IC50 (HIV protease): 4.1 nM
- TD50 (nM) (CEM cells): >1,000,000 nM

Compound: CC(=O)Nc1ccc(S(=O)(=O)N(CC(C)C)C[C@@H](O)[C@H](Cc2ccccc2)NC(=O)[C@H](C)CS(C)(=O)=O)cc1 (relative stereo) [Example 10, Propanamide, N-[2-Hydroxy-3-[(2-methylpropyl)(4-acetamido)phenylsulfonyl)amino]-1-(phenylmethyl)propyl]-2-methyl-3-(methylsulfonyl)-,[1S-[1R*(R*),2S*]]-]
- EC50 (HIV-1): 223 nM
- TD50 (nM) (CEM cells): 860,000 nM

Compound: CC(C)CCN(C[C@@H](O)[C@H](Cc1ccccc1)NC(=O)[C@H](C)CS(C)(=O)=O)S(=O)(=O)c1ccc(N)cc1 (relative stereo) [Example 11, Propanamide, N-[2-Hydroxy-3-[(3-methylbutyl)(4-aminophenylsulfonyl)amino]-1-(phenylmethyl)propyl]-2-methyl-3-(methylsulfonyl)-,[1S-[1R*(R*),2S*]]-]
- EC50 (HIV-1; [1]): 45 nM
- IC50 (HIV protease): 7.8 nM
- TD50 (nM) (CEM cells): 170,000 nM

Compound: COc1ccc(S(=O)(=O)N(CC(C)C)C[C@@H](O)[C@H](Cc2ccccc2)NC(=O)[C@H](C)CS(C)(=O)=O)cc1OC (relative stereo) [Example 12, Propanamide, N-[2-Hydroxy-3-[(2-methylpropyl)(3.4-dimethoxyphenylsulfonyl)amino]-1-(phenylmethyl)propyl]-2-methyl-3-(methylsulfonyl)-,[1S-[1R*(R*),2S*]]-]
- EC50 (HIV-1; [1]): 87 nM
- IC50 (HIV protease): 38 nM
- TD50 (nM) (CEM cells): 77,000 nM
